From patent US7807828B2, “Olanzapine analogs and methods of use thereof” (Hypnion, Inc., priority 2005, dated 2010)
Values joined by “and” are separate entries in the source; they are usually repeats but may differ in a detail not shown here. Equal values may be shown once.

How the values were obtained:
H1 (hr) [1] = target: T1, H1 (hr) (Homo sapiens, UniProt P35367); test: H1 (hr) Cerep binding assay; conditions: Table 7A; Ki in nM
T1 construct: Novascreen, MDS, Cerep (assay providers)
Protocol: (§1) Binding assays were performed using various sleep-inducing agents and derivatives selected from those listed in Table 1 in competitive binding assays with known standards for the H1 histamine receptor, and the M1, M2, and M3 muscarinic receptors, alpha 1 and alpha 2 receptors, D1 and D2 receptors, 5HT2a, 5HT2b, 5HT2c, 5HT2c, and 5HT7 receptors.
(§2) The histamine H1 assays are described in Chang, et al., Heterogeneity of Histamine H1-Receptors: Species Variation in [^3H]Mepyramine Binding of Brain Membranes. Journal of Neurochemistry. 32: 1653-1663 (1979); Martinez-Mir, M. I., Pollard, H., Moreau, J., et al. Three Histamine Receptors (H1, H2, and H3) Visualized in the Brain of Human and Non-Human Primates. Brain Res. 526: 322-327 (1990); Haaksma, E. E. J., Leurs, R. and Timmerman, H. Histamine Receptors: Subclasses and Specific Ligands. Pharmac. Ther. 47: 73-104 (1990). The muscarinic assays are described in Buckley, N. J., Bonner, T. I., Buckley, C. M., and Brann, M. R. Antagonist Binding Properties of Five Cloned Muscarinic Receptors Expressed in CHO-K1 Cells. Mol. Pharmacol. 35: 469-476 (1989). The assays were performed according to the preceding articles, with the following modifications. Chemical reagents in the following were obtained from Sigma, St. Louis, Mo.

5HT2b (h) = 5HT2b (h) (Homo sapiens, UniProt P41595); test: 5HT2b (h) binding assay; conditions: Table 7B; unit inferred
5HT2b (h), sequence (P41595 whole entry): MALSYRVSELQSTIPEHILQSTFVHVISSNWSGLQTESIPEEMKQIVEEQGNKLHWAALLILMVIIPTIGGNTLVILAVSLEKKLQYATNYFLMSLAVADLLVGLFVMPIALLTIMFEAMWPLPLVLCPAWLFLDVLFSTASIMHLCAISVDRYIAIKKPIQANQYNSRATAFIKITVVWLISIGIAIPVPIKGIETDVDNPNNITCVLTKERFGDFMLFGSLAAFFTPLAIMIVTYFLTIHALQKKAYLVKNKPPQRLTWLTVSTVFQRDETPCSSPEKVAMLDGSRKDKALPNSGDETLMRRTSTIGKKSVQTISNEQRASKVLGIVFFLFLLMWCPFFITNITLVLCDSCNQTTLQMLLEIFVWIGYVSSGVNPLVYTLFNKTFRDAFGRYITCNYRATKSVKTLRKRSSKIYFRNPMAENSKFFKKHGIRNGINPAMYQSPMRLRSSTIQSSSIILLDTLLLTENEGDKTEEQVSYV

H1 (hr) [2] = target: T1, H1 (hr); test: H1 (hr) MDS binding assay; conditions: Table 7A; Ki in nM
Protocol: as §1, §2

5HT7 (h) = 5HT7 (h) (Homo sapiens, UniProt P34969); test: 5HT7 (h) binding assay; conditions: Table 7B; unit inferred
5HT7 (h), sequence (P34969 whole entry): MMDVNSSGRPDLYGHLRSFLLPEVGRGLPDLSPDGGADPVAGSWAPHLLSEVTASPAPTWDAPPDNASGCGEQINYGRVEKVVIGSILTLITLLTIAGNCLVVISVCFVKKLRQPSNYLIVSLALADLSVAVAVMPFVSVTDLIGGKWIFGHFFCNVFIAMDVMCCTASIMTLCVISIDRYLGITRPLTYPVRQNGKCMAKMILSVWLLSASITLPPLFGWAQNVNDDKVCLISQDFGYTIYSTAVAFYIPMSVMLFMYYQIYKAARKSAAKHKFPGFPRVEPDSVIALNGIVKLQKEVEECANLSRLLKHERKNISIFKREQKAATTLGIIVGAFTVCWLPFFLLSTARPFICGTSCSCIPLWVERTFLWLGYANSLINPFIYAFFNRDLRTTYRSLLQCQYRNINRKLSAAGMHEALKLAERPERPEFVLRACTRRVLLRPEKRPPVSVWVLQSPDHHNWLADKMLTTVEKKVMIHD
Protocol: as §1
In vitro binding assays are used to determine 5HT2a binding. These binding assays measure the ability of benzisoxazole analogs to displace known standards from the 5HT2a, 5HT2b, 5HT2c, and 5HT7. A decrease in the binding of the compounds to the M1-M3 receptors, relative to the binding of the compound to the 5HT2a receptor, is an indication of the greater specificity of the compound for the 5HT2a receptor over the muscarinic receptor. […] 5HT2a binding is determined as described for example in British Journal of Pharmacology (1995) 115, 622-628.

T1 sequence (P35367 whole entry): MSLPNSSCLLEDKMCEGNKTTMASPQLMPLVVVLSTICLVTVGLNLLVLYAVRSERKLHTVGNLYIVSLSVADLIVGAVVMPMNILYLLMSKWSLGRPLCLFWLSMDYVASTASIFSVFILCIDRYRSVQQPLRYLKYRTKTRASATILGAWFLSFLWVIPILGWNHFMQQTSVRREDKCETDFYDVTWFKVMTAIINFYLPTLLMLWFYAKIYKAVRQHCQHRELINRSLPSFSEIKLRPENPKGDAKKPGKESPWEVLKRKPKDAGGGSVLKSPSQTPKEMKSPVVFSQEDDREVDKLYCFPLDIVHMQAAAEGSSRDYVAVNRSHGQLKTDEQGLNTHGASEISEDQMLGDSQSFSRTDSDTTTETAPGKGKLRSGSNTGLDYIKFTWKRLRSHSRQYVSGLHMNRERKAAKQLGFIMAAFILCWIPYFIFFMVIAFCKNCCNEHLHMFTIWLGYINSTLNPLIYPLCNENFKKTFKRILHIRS

## Cc1cc2c(s1)Nc1ccccc1N=C2N1CCN(CC(C)(C)C(=O)O)CC1 [Compound 46]
H1 (hr) [1]
  Ki: 210 nM
5HT2b (h)
  Ki: 0.151 µM and 0.27 µM
H1 (hr) [2]
  Ki: 44 nM
5HT7 (h)
  Ki: 4.08 µM
